Results on four compounds are retold here after article PMC3164908 (European journal of medicinal chemistry, 2011).

The structures appear in SMILES notation. “Also recorded” adds a separate entry of the source. Like-named read-outs stand apart in the source and are kept apart here. Some results are limits rather than exact numbers.

For data set [1], the system named is multidrug-resistant strains of HIV. Conditions: cited from earlier work.
In data set [2] the test system is MT-2 cell line. Put plainly: Cell viability assay. The class given is cell-based, human. Conditions: MTT assay, concentrations up to 100 μM. (In general: Tetrazolium assays rely on reduction of a dye to a coloured formazan, in cell work by metabolically active cells.)
Data set [3] can be described thus: Solubility in water. The class given is physicochemical.
Data set [4] concerns TZM-BL (derived from Hela Cells). Put plainly: Cytotoxicity screening, Promega CellTiter-Glo Luminescent Cell Viability Assay. Format: cell-based. Conditions: Homo sapiens, read-out: IC50 (μM), concentration that inhibits cell growth by 50%. (In general: Cellular ATP, detected with luciferase, serves as a proxy for viable cell number.)

Consider `Cc1cn([C@H]2C[C@H](O)[C@](CO)(N=[N+]=[N-])O2)c(=O)[nH]c1=O` [4′-C-azidothymidine], for which, in data set [1], the EC50 (commonly the concentration at which the effect is half-maximal) is 340 nM.
With `[N-]=[N+]=N[C@]1(CO)O[C@@H](n2ccc(N)nc2=O)[C@@H](F)[C@@H]1O` [Compound 10, 1-(4′-azido-2′-deoxy-2′-fluoro-β -D-arabinofuranosyl)cytosine], in data set [2], the “cytotoxicity / effect on cell growth” value is listed as “did not show significant cytotoxicity; also recorded: without significant cytotoxicity; also recorded: no significant effect on cell growth or any cytotoxic effect”. Further, in data set [3] (water), the solubility is 3.1 g in 100 g water.
Consider `Cl.[N-]=[N+]=N[C@]1(CO)O[C@@H](n2ccc(N)nc2=O)[C@@H](F)[C@@H]1O` [Compound 11, 1-(4-azido-2-deoxy-2-fluoro)-β-D-arabinofuranosyl)cytosine hydrochloride salt], for which the IC50 in data set [4] is more than 140 µM.
For `Cl.[N-]=[N+]=N[C@]1(CO)O[C@@H](n2ccc(N)nc2=O)[C@@H](F)[C@@H]1O` [Compound 11], in data set [2], the “cytotoxicity / effect on cell growth” value is listed as “did not show significant cytotoxicity; also recorded: without significant cytotoxicity; also recorded: no significant effect on cell growth or any cytotoxic effect”. This compound came in with a solubility in data set [3] of 14.3 g in 100 g water.
